Here are results for two molecules from US9648872B2, “Water dispersible granule composition” (priority 2014, dated 2017).

Values after ≈ are worked out from the molar mass of the structure shown.

The conditions of data set [1]: cited from earlier work.
The nature of data set [2]: Solubility of active ingredient. The format is physicochemical. From the text: Formulations of water dispersible granules comprising microcapsules encapsulating active ingredients with higher water solubilities: • a. […] When attempting to prepare water dispersible granules comprising microcapsules of Thiamethoxam as per an embodiment of this invention, it was observed that Thiamethoxam was not soluble in the solvent C-9. It is observed that thiamethoxam decomposed immediately beyond its melting point. On attempting to add methylene diphenyl diisocyanate (MDI) in molten Thiamethoxam, it polymerized immediately due to high temperature. Thus Thiamethoxam could not be microencapsulated and it was not possible to prepare its water dispersible granular formulation. • b. […] A water dispersible granular composition comprising microcapsules of 25% Propoxur within a polyurea shell wall with Gohensol GL-03 was made, according to an embodiment of the invention, including maltodextrin as a water soluble suspension adjuvant in the filler base, along with clay, sodium lignosulfonate and alkyl naphthalene sulfonate (Supragil WP). The suspensibility observed was 85%. A water dispersible granule composition comprising microcapsules of 25% Propoxur was prepared with the microcapsules having a polyurea shell wall and polyvinyl alcohol Gohensol GL-03. […]

Turning to `CNC(=O)Oc1ccccc1OC(C)C` [Propoxur], the solubility in water in data set [1] was 1800 µg/mL (≈ 8.6 mM).

For `CN1COCN(Cc2cnc(Cl)s2)/C1=N\[N+](=O)[O-]` [Thiamethoxam], in data set [2], the “solubility in the solvent C-9” value is on record as “not soluble”.
